{
  "source": "paper PMC3545969",
  "about": "“Mutagenicity and antimutagenicity of (−)-hinokinin a trypanosomicidal compound measured by Salmonella microsome and comet assays” (BMC Complementary and Alternative Medicine, 2012)",
  "key": {"[1]": {"test_system": "Salmonella typhimurium TA98"}, "V79 cells": {"test_system": "V79 cells", "assay": "Comet assay, genotoxicity in V79 cells", "assay_type": "cell-based, Chinese hamster", "design": "Class 0 / Class 1 / Class 2 / Class 3: unit not given here", "conditions": "3 h", "protocol": "Chinese hamster lung fibroblasts (V79) were kindly supplied by Professor Cólus (Universidade Estadual de Londrina (UEL), Paraná, Brazil). Cells were maintained as monolayers in plastic culture flasks (25 cm^2) in HAM-F10 (Sigma-Aldrich) plus DMEM (Sigma-Aldrich, 1:1) culture medium supplemented with 10%; fetal bovine serum (Nutricell), antibiotics (0.01 mg mL^−1 streptomycin and 0.005 mg mL^−1 penicillin; Sigma-Aldrich) and 2.38 mg mL^−1 Hepes (Sigma-Aldrich), at 37°C in a BOD-type chamber. Under these conditions, the average cell cycle time was 12 h.\nHK was first dissolved in a mixture of methanol (100 μL) and distilled water (900 μL). The final concentration of methanol in the culture was 0.1%;. The choice of concentrations was based on the results of previous experiments with HK [12]. In the experiments, 3 × 10^5 cells (V79) were seeded into tissue-culture flasks, incubated for two cycles (24 h) in complete HAM-F10/DMEM medium, washed with phosphate buffer saline (PBS), and then subjected to one of the following treatments, in serum-free medium, for 3 h. To assess genotoxicity, the cells were treated with each concentration of HK alone, while for antigenotoxicity, they were treated with the mutagen DXR (0.3 μM) in combination with each HK concentration. Positive (DXR) and negative controls were also included in the test. At the end of the treatment, the cells were washed with ice-cold PBS and trypsinized with 200 μL trypsin. After 3 min, the cells were gently resuspended in complete medium and 20 μL of the cell suspension was immediately used for the test.\nThe procedures described by Singh et al. were adopted, with minor modifications, as described in detail by Speit and Hartmann and reviewed by Burlinson et al.. Briefly, a microscope slide was covered with a base layer of 1.5%; normal-melting agarose (Invitrogen) and 20 μL of the test cells suspended in 120 μL 0.5%; low-melting agarose (Invitrogen) at 37°C was then spread over the base layer. A coverslip was added and the agarose allowed to solidify at 4°C for 15 min. Next, the coverslip was gently removed and the slides were immersed in freshly prepared lysing solution consisting of 89 mL stock solution (2.5 M NaCl, 100 mM EDTA, 10 mM Tris, pH 10.0, and 1%; sodium lauryl sarcosine), 10 mL DMSO and 1 mL Triton X-100, pH 10.0, at 4°C, for at least 20 h, protected from light. At the end of this period, the slides were transferred to an electrophoresis chamber containing a high pH (>13.0) buffer (300 mM NaOH, 1 mM EDTA) and incubated at 4°C for 20 min to allow the DNA to unwind. A current of 25 V (1.0 V cm^−1, 300 mA) was applied for 20 min. The slides were then submerged in a neutralization buffer (0.4 M Tris - HCl, pH 7.5) for 15 min, dried at room temperature and fixed in 100%; ethanol for 10 min.\nThe slides were stained with 100 μL ethidium bromide (20 μg ml^−1) and covered with a coverslip. All the slides in the experiment were coded before analysis. The stained nucleoids were immediately evaluated at 1000x magnification under a Nikon fluorescence microscope fitted with a 515–560 nm excitation filter and a 590 nm barrier filter.\nFor each treatment, the extent and distribution of DNA damage indicated by the comet assay were evaluated by examining 100 randomly selected and non-overlapping cells on the slides (i.e. 300 nucleoids per treatment). For each slide, the cells were visually scored and allocated to one of four classes (0, 1, 2 and 3), according to tail size, as follows: class 0, undamaged, no tail; class 1, a short tail whose length was smaller than the diameter of the comet head (nucleus); class 2, tail length between 1 and 2 times the diameter of the head; and class 3, maximally damaged: a long tail measuring more than twice the diameter of the head. The few comets containing no head and those with almost all DNA in the tail, or with a very wide tail, were excluded from the analysis since they may arise from dead cells. […]"}, "[2]": {"test_system": "Salmonella typhimurium TA98", "remark": "listed apart in the source"}, "[3]": {"conditions": "TA 98, − S9, HK 19.5 μg/plate + NOPD 10.0 μg/plate"}, "[4]": {"conditions": "TA 98, − S9, HK 39.0 μg/plate + NOPD 10.0 μg/plate"}, "[5]": {"conditions": "TA 98, − S9, HK 58.5 μg/plate + NOPD 10.0 μg/plate"}, "[6]": {"conditions": "TA 98, − S9, HK 78.0 μg/plate + NOPD 10.0 μg/plate"}, "[7]": {"conditions": "TA 98, − S9, HK […] + NOPD 10.0 μg/plate"}},
  "note": "Where two headings read alike, the source gives them in different places. Marks after values point to notes of the source that are not given here.",
  "data": [
    {"compound": "O=C1OC[C@H](Cc2ccc3c(c2)OCO3)[C@H]1Cc1ccc2c(c1)OCO2", "note": "[HK, (−)-hinokinin]", "values": [
      {"measurement": "% inhibition", "setting": "[1]; TA 98, + S9, HK 19.5 μg/plate + B[a]P 1.0 μg/plate", "result": "32** %"},
      {"measurement": "% inhibition", "setting": "[1]; TA 98, + S9, HK 39.0 μg/plate + B[a]P 1.0 μg/plate", "result": "36** %"},
      {"measurement": "% inhibition", "setting": "[1]; TA 98, + S9, HK 58.5 μg/plate + B[a]P 1.0 μg/plate", "result": "52*** %"},
      {"measurement": "% inhibition", "setting": "[1]; TA 98, + S9, HK 78.0 μg/plate + B[a]P 1.0 μg/plate", "result": "59*** %"},
      {"measurement": "% inhibition", "setting": "[1]; TA 98, + S9, HK […] + B[a]P 1.0 μg/plate", "result": "31** %"},
      {"measurement": "% inhibition", "setting": "[1]; [3]", "result": "21* %"},
      {"measurement": "Number of revertants(M ± SD)/ plate", "setting": "[1]; [3]", "result": "507 + 15 revertants/plate"},
      {"measurement": "% inhibition", "setting": "[1]; [4]", "result": "26** %"},
      {"measurement": "Number of revertants(M ± SD)/ plate", "setting": "[1]; [4]", "result": "477 + 5 revertants/plate"},
      {"measurement": "% inhibition", "setting": "[1]; [5]", "result": "19* %"},
      {"measurement": "Number of revertants(M ± SD)/ plate", "setting": "[1]; [5]", "result": "521 + 9 revertants/plate"},
      {"measurement": "% inhibition", "setting": "[1]; [6]", "result": "25** %"},
      {"measurement": "Number of revertants(M ± SD)/ plate", "setting": "[1]; [6]", "result": "480 + 16 revertants/plate"},
      {"measurement": "% inhibition", "setting": "[1]; [7]", "result": "18* %"},
      {"measurement": "Number of revertants(M ± SD)/ plate", "setting": "[1]; [7]", "result": "525 + 7 revertants/plate"},
      {"measurement": "Class 0", "setting": "V79 cells; HK 0.5 μM alone", "result": "81.6 ± 4.9"},
      {"measurement": "Class 1", "setting": "V79 cells; HK 0.5 μM alone", "result": "12.3± 3.5"},
      {"measurement": "Class 2", "setting": "V79 cells; HK 0.5 μM alone", "result": "4.3 ± 3.7"},
      {"measurement": "Score", "setting": "V79 cells; HK 0.5 μM alone", "result": "26.0 ± 13.2"},
      {"measurement": "Class 0", "setting": "V79 cells; HK 1.0 μM alone", "result": "87.0 ± 5.1"},
      {"measurement": "Class 1", "setting": "V79 cells; HK 1.0 μM alone", "result": "11.0 ± 5.2"},
      {"measurement": "Class 2", "setting": "V79 cells; HK 1.0 μM alone", "result": "1.3 ± 0.5"},
      {"measurement": "Class 3", "setting": "V79 cells; HK 1.0 μM alone", "result": 0},
      {"measurement": "Score", "setting": "V79 cells; HK 1.0 μM alone", "result": "13.0 ± 5.0"},
      {"measurement": "Class 0", "setting": "V79 cells; HK 2.0 μM alone", "result": "83.0 ± 3.7"},
      {"measurement": "Class 1", "setting": "V79 cells; HK 2.0 μM alone", "result": "14.0 ± 2.5"},
      {"measurement": "Class 2", "setting": "V79 cells; HK 2.0 μM alone", "result": "2.0 ± 2.0"},
      {"measurement": "Class 3", "setting": "V79 cells; HK 2.0 μM alone", "result": 0},
      {"measurement": "Score", "setting": "V79 cells; HK 2.0 μM alone", "result": "18.0 ± 5.0"},
      {"measurement": "Class 0", "setting": "V79 cells; HK 32 μM alone", "result": "89.0 ± 2.0"},
      {"measurement": "Class 1", "setting": "V79 cells; HK 32 μM alone", "result": "10.0 ± 2.0"},
      {"measurement": "Class 2", "setting": "V79 cells; HK 32 μM alone", "result": "0.3 ± 0.5"},
      {"measurement": "Class 3", "setting": "V79 cells; HK 32 μM alone", "result": "0.6 ± 1.1"},
      {"measurement": "Score", "setting": "V79 cells; HK 32 μM alone", "result": "9.6 ± 2.3"},
      {"measurement": "Class 0", "setting": "V79 cells; HK 64 μM alone", "result": "88.0 ± 3.6"},
      {"measurement": "Class 1", "setting": "V79 cells; HK 64 μM alone", "result": "11.0 ± 4.0"},
      {"measurement": "Class 2", "setting": "V79 cells; HK 64 μM alone", "result": "0.6 ± 1.0"},
      {"measurement": "Class 3", "setting": "V79 cells; HK 64 μM alone", "result": "1.0 ± 1.0"},
      {"measurement": "Score", "setting": "V79 cells; HK 64 μM alone", "result": "13.0 ± 3.4"},
      {"measurement": "MI (mutagenicity index)", "setting": "[2]; TA 98, + S9, HK 19.5 μg/plate", "result": 1.1},
      {"measurement": "Number of revertants(M ± SD)/ plate", "setting": "[2]; TA 98, + S9, HK 19.5 μg/plate", "result": "34 ± 3", "unit": "revertants/plate"},
      {"measurement": "MI (mutagenicity index)", "setting": "[2]; TA 98, + S9, HK 39.0 μg/plate", "result": 1.0},
      {"measurement": "Number of revertants(M ± SD)/ plate", "setting": "[2]; TA 98, + S9, HK 39.0 μg/plate", "result": "33 ± 4", "unit": "revertants/plate"},
      {"measurement": "MI (mutagenicity index)", "setting": "[2]; TA 98, + S9, HK 58.5 μg/plate", "result": 0.8},
      {"measurement": "Number of revertants(M ± SD)/ plate", "setting": "[2]; TA 98, + S9, HK 58.5 μg/plate", "result": "28 ± 1", "unit": "revertants/plate"},
      {"measurement": "MI (mutagenicity index)", "setting": "[2]; TA 98, + S9, HK 78.0 μg/plate", "result": 1.0},
      {"measurement": "Number of revertants(M ± SD)/ plate", "setting": "[2]; TA 98, + S9, HK 78.0 μg/plate", "result": "31 ± 2", "unit": "revertants/plate"},
      {"measurement": "MI (mutagenicity index)", "setting": "[2]; TA 98, - S9, HK 19.5 μg/plate", "result": 1.0},
      {"measurement": "Number of revertants(M ± SD)/ plate", "setting": "[2]; TA 98, - S9, HK 19.5 μg/plate", "result": "23 ± 3", "unit": "revertants/plate"},
      {"measurement": "MI (mutagenicity index)", "setting": "[2]; TA 98, - S9, HK 39.0 μg/plate", "result": 1.1},
      {"measurement": "Number of revertants(M ± SD)/ plate", "setting": "[2]; TA 98, - S9, HK 39.0 μg/plate", "result": "25 ± 3", "unit": "revertants/plate"},
      {"measurement": "MI (mutagenicity index)", "setting": "[2]; TA 98, - S9, HK 58.5 μg/plate", "result": 1.1},
      {"measurement": "Number of revertants(M ± SD)/ plate", "setting": "[2]; TA 98, - S9, HK 58.5 μg/plate", "result": "25 ± 2", "unit": "revertants/plate"},
      {"measurement": "MI (mutagenicity index)", "setting": "[2]; TA 98, - S9, HK 78.0 μg/plate", "result": 1.1},
      {"measurement": "Number of revertants(M ± SD)/ plate", "setting": "[2]; TA 98, - S9, HK 78.0 μg/plate", "result": "24 ± 5", "unit": "revertants/plate"}
    ]}
  ]
}
